Experimental data as given in publication PMC9069370, “Integrated Design of a Membrane‐Lytic Peptide‐Based Intravenous Nanotherapeutic Suppresses Triple‐Negative Breast Cancer” (Advanced Science, 2022).
Peptide text beside a SMILES is read from it.

Tests used:
[1] = system: HMLER; test: cells; assay type: cell-based, human; conditions: 72 h
Description: (§1) […], and MCF-10A cells were maintained in MEGM with supplements and growth factors bovine pituitary extract, hydrocortisone, human epidermal growth factor, insulin, and gentamicin/amphotericin-B.

[2] = system: HMLER‐shEcad; test: cells; assay type: cell-based, human; conditions: 72 h
Description: as §1

[3] = system: MCF‐10A; test: cells; assay type: cell-based, human; conditions: 72 h
Description: as §1

[4] = system: U2OS; assay type: cell-based, human; conditions: 72 h
[5] = system: HEK293T; test: cells; assay type: cell-based, human; conditions: 72 h
[6] = Tryptophan fluorescent binding assay; conditions: tryptophan fluorescence; 50 µM peptide, lipid titrated 0-5000 µM; phosphate buffered saline 1X, pH 7.4; values as lipid per peptide
Outline: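 Tryptophan fluorescence was used to follow binding of peptide, fixed at 50 µM, to large unilamellar vesicles of POPC:POPG (3:1 ratio) titrated into phosphate buffered saline (1X, pH 7.4). After 1 h incubation, spectra were taken on a BioTek Cytation 5 reader with excitation at 280 nm and emission at 300 to 450 nm (9 nm slits), averaging three scans.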

[7] = ANTS/DPX liposome leakage assay; conditions: for Peptide Concentration-induced 50 % ANTS/DPX leakage at pH 4.8 (L/P), 3POPC/1POPG Vesicle / Peptide Concentration-induced 50 % ANTS/DPX leakage at pH 4.8 (L/P), POPC Vesicle / Peptide Concentration-induced 50 % ANTS/DPX leakage at pH 7.4 (L/P), 3POPC/1POPG Vesicle / Peptide Concentration-induced 50 % ANTS/DPX leakage at pH 7.4 (L/P), POPC Vesicle: 0.5 mM vesicles, peptide 0-20 µM, 3 h incubation, lipid per peptide; for Peptide Concentration-induced 50 % ANTS/DPX leakage at pH 4.8 (L/P), 3POPC/1POPG Vesicle / Peptide Concentration-induced 50 % ANTS/DPX leakage at pH 4.8 (L/P), POPC Vesicle: HCl-adjusted PBS 1X pH 4.8; for Peptide Concentration-induced 50 % ANTS/DPX leakage at pH 7.4 (L/P), 3POPC/1POPG Vesicle / Peptide Concentration-induced 50 % ANTS/DPX leakage at pH 7.4 (L/P), POPC Vesicle: PBS 1X pH 7.4, high ratio = more potent
Outline: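 Extruded 0.1 µm POPC or POPC/POPG (3:1) vesicles were loaded with 5 mM ANTS and 12.5 mM DPX, gel-filtered, then used at 0.5 mM lipid with titrated peptide at pH 7.4 or pH 4.8 (acidified PBS). Leakage was read at ex 350/em 510 nm after 3 h against 10% Triton maximum, expressed as lipid/peptide ratio for 50% leakage.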

Row | SMILES | IC50 [1] | IC50 [2] | IC50 [3] | IC50 [4] | IC50 [5] | Lipid Concentration-induced 50% Peptide Binding (L/P), 3POPC/1POPG Vesicle [6] | Lipid Concentration-induced 50% Peptide Binding (L/P), POPC Vesicle [6] | Peptide Concentration-induced 50 % ANTS/DPX leakage at pH 4.8 (L/P), 3POPC/1POPG Vesicle [7] | Peptide Concentration-induced 50 % ANTS/DPX leakage at pH 4.8 (L/P), POPC Vesicle [7] | Peptide Concentration-induced 50 % ANTS/DPX leakage at pH 7.4 (L/P), 3POPC/1POPG Vesicle [7] | Peptide Concentration-induced 50 % ANTS/DPX leakage at pH 7.4 (L/P), POPC Vesicle [7] | change of ANTS/DPX dye leakage / liposome selectivity at pH 4.8 ([7]; pH = 4.8 compared with physiological pH, anionic versus neutral liposomes)
1 | CC(C)C[C@H](NC(=O)CN)C(=O)N[C@@H](CC(C)C)C(=O)N[C@@H](CCC(=O)O)C(=O)N[C@@H](CC(C)C)C(=O)N[C@@H](CC(C)C)C(=O)N[C@@H](Cc1c[nH]cn1)C(=O)N[C@@H](CC(C)C)C(=O)N[C@@H](CC(C)C)C(=O)N[C@@H](CC(C)C)C(=O)N[C@@H](CCCCN)C(=O)N[C@@H](C)C(=O)N[C@@H](C)C(=O)NCC(=O)N[C@@H](Cc1c[nH]c2ccccc12)C(N)=O [EHK] (H-GLLELLHLLLKAAGW-NH2) | 1.35 ± 0.35 µM | 0.71 ± 0.13 µM | 3.6 ± 0.99 µM | 25 µM | 5.35 ± 0.07 µM | 0.42 L/P | 0.56 L/P | 117 L/P | 55 L/P | 505 L/P | 981 L/P | 
2 | CC(C)C[C@H](NC(=O)CN)C(=O)N[C@@H](CC(C)C)C(=O)N[C@@H](CCCCN)C(=O)N[C@@H](CC(C)C)C(=O)N[C@@H](CC(C)C)C(=O)N[C@@H](Cc1c[nH]cn1)C(=O)N[C@@H](CC(C)C)C(=O)N[C@@H](CC(C)C)C(=O)N[C@@H](CC(C)C)C(=O)N[C@@H](Cc1c[nH]cn1)C(=O)N[C@@H](C)C(=O)N[C@@H](C)C(=O)NCC(=O)N[C@@H](Cc1c[nH]c2ccccc12)C(N)=O [KHH] (H-GLLKLLHLLLHAAGW-NH2) | 5.2 ± 0.71 µM | 4.45 ± 0.49 µM | 10.3 ± 0.49 µM | 39.8 ± 5.3 µM | 7.75 ± 0.78 µM | 0.94 L/P | 3.50 L/P | 48 L/P | 227 L/P | 329 L/P | 1153 L/P | 
3 | CC(C)C[C@H](NC(=O)CN)C(=O)N[C@@H](CC(C)C)C(=O)N[C@@H](CC(=O)O)C(=O)N[C@@H](CC(C)C)C(=O)N[C@@H](CC(C)C)C(=O)N[C@@H](CCCCN)C(=O)N[C@@H](CC(C)C)C(=O)N[C@@H](CC(C)C)C(=O)N[C@@H](CC(C)C)C(=O)N[C@@H](CCCCN)C(=O)N[C@@H](C)C(=O)N[C@@H](C)C(=O)NCC(=O)N[C@@H](Cc1c[nH]c2ccccc12)C(N)=O [DKK] (H-GLLDLLKLLLKAAGW-NH2) | 1.95 ± 0.35 µM | 1.2 ± 0.14 µM | 2.57 ± 0.52 µM | 10.4 ± 1.7 µM | 3.4 ± 0.28 µM | 6.88 L/P | 2.75 L/P | 227 L/P | 47 L/P | 156 L/P | 463 L/P | 
4 | CC(C)C[C@H](NC(=O)CN)C(=O)N[C@@H](CC(C)C)C(=O)N[C@@H](Cc1c[nH]cn1)C(=O)N[C@@H](CC(C)C)C(=O)N[C@@H](CC(C)C)C(=O)N[C@@H](CCCCN)C(=O)N[C@@H](CC(C)C)C(=O)N[C@@H](CC(C)C)C(=O)N[C@@H](CC(C)C)C(=O)N[C@@H](CCC(=O)O)C(=O)N[C@@H](C)C(=O)N[C@@H](C)C(=O)NCC(=O)N[C@@H](Cc1c[nH]c2ccccc12)C(N)=O [HKE] (H-GLLHLLKLLLEAAGW-NH2) | 2.7 ± 0.28 µM | 1.9 ± 0.42 µM | 7.6 ± 0.42 µM | 16 ± 0.78 µM | 5.15 ± 0.64 µM | 0.25 L/P | 0.75 L/P | 94 L/P | 173 L/P | 365 L/P | 692 L/P | 
5 | CC(C)C[C@H](NC(=O)CN)C(=O)N[C@@H](CC(C)C)C(=O)N[C@@H](CCCCN)C(=O)N[C@@H](CC(C)C)C(=O)N[C@@H](CC(C)C)C(=O)N[C@@H](CCC(=O)O)C(=O)N[C@@H](CC(C)C)C(=O)N[C@@H](CC(C)C)C(=O)N[C@@H](CC(C)C)C(=O)N[C@@H](CCCCN)C(=O)N[C@@H](C)C(=O)N[C@@H](C)C(=O)NCC(=O)N[C@@H](Cc1c[nH]c2ccccc12)C(N)=O [KEK] (H-GLLKLLELLLKAAGW-NH2) | 1.6 ± 0.14 µM | 1.35 ± 0.07 µM | 1.55 ± 0.07 µM | 8.15 ± 0.49 µM | 3.2 ± 0.14 µM | 0.50 L/P | 0.47 L/P | 126 L/P | 110 L/P | 438 L/P | 1173 L/P | 
6 | CC(C)C[C@H](NC(=O)CN)C(=O)N[C@@H](CC(C)C)C(=O)N[C@@H](CC(=O)O)C(=O)N[C@@H](CC(C)C)C(=O)N[C@@H](CC(C)C)C(=O)N[C@@H](Cc1c[nH]cn1)C(=O)N[C@@H](CC(C)C)C(=O)N[C@@H](CC(C)C)C(=O)N[C@@H](CC(C)C)C(=O)N[C@@H](Cc1c[nH]cn1)C(=O)N[C@@H](C)C(=O)N[C@@H](C)C(=O)NCC(=O)N[C@@H](Cc1c[nH]c2ccccc12)C(N)=O [DHH] (H-GLLDLLHLLLHAAGW-NH2) | 21.4 ± 2.47 µM | 11.9 ± 0.14 µM | > 200 µM | 55.9 ± 18.9 µM | 6.4 ± 0.42 µM | 0.28 L/P | 0.67 L/P | 98 L/P | 106 L/P | 692 L/P | 684 L/P | 
7 | CC(C)C[C@H](NC(=O)CN)C(=O)N[C@@H](CC(C)C)C(=O)N[C@@H](CCC(=O)O)C(=O)N[C@@H](CC(C)C)C(=O)N[C@@H](CC(C)C)C(=O)N[C@@H](Cc1c[nH]cn1)C(=O)N[C@@H](CC(C)C)C(=O)N[C@@H](CC(C)C)C(=O)N[C@@H](CC(C)C)C(=O)N[C@@H](Cc1c[nH]cn1)C(=O)N[C@@H](C)C(=O)N[C@@H](C)C(=O)NCC(=O)N[C@@H](Cc1c[nH]c2ccccc12)C(N)=O [EHH] (H-GLLELLHLLLHAAGW-NH2) | 25.4 ± 2.76 µM | 16.1 ± 3.18 µM | 150 ± 71 µM | 117 ± 7 µM | 5.9 ± 0.14 µM | 0.69 L/P | 0.94 L/P | 80 L/P | 386 L/P | 981 L/P | 1043 L/P | increased selectivity for neutral bilayers
